Test results published in ChEMBL document CHEMBL1145757, “QSAR study on solubility of alkanes in water and their partition coefficients in different solvent systems using PI index” (Bioorg Med Chem Lett, 2003).
In brackets after ≈: the same amount, converted by molar mass.

Assays:
physchem [1] = test: physchem
Description: Solubility in water was determined; values expressed as -log

physchem [2] = conditions: octanol/water
Description: Partition coefficient (logP)

[3] = Partition coefficient in water-cyclohexane was determined; type: ADME
[4] = octanol/water
Description: Partition coefficient (logP)

[5] = water/hexadecane
Description: Partition coefficient in water-hexadecane (P16) was determined

[6] = water/alkane
Description: Partition coefficient in alkanes was determined

| Structure (SMILES) | solubility (physchem [1]; water) | logP (physchem [2]) | Log Pcyc [3] | logP [4] | solubility (physchem [1]; buffer) | Log P16 [5] | Log Palk [6] |
| --- | --- | --- | --- | --- | --- | --- | --- |
| CCCCCCCCCCCCCC | 0.011 µM (≈ 0.00218 µg/mL) | 8 |  |  |  |  |  |
| CCCC [BUTANE] |  |  | 3.62 | 2.89 | 2690 µM (≈ 156 µg/mL) |  |  |
| CCCCCCCCCC [DECANE] | 0.105 µM (≈ 0.0149 µg/mL) | 6.34 |  |  |  | 7.01 |  |
| CCCCCCCCCCCC [DODECANE] |  |  |  |  | 0.0214 µM (≈ 0.00364 µg/mL) |  |  |
| CCCCCCC [HEPTANE] | 29.5 µM (≈ 2.96 µg/mL) | 4.5 |  |  |  | 5.14 |  |
| CCCCCCCCCCCCCCCC [HEXADECANE] | 0.00398 µM (≈ 0.000902 µg/mL) |  |  | 9.57 |  |  |  |
| CCCCCC [HEXANE] |  |  |  | 3.9 | 145 µM (≈ 12.5 µg/mL) |  |  |
| C [METHANE] |  |  | 1.33 |  |  | 1.14 | 1.37 |
| CCCCCCCCC [NONANE] |  | 5.65 |  |  | 1.32 µM (≈ 0.169 µg/mL) | 6.49 |  |
| CCCCCCCC [OCTANE] | 5.75 µM (≈ 0.657 µg/mL) | 5.15 |  |  |  | 5.79 |  |
| CCCCC [PENTANE] | 661 µM (≈ 47.7 µg/mL) |  | 4.27 |  |  | 3.87 | 4.06 |
